TGI data for 11 compounds are collected here from PubChem BioAssay (NCI).

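These data come from cells grown in 96-well plates and exposed to compound for 48 hours at five concentrations. TGI denotes the concentration required for complete inhibition of growth.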

Test systems include UACC-62 melanoma; SK-MEL-2 melanoma; SN12C renal; HL-60(TB) leukemia; M14 melanoma; HS 578T breast; HCT-15 colon; HOP-62 NSCLC; OVCAR-3 ovarian; EKVX NSCLC; NCI-H522 lung; RXF 393 renal; CAKI-1 renal; MOLT-4 leukemia; A549 NSCLC; CCRF-CEM leukemia; PC-3 prostate; SK-MEL-5 melanoma; SNB-75 CNS; MDA-MB-435.
Common to all, as to test: NCI tumour cell line growth inhibition, 48 h

For `C=CC1C(OC2OC(CO)C(O)C(O)C2O)OC=C(C(=O)OC)C1CC1CC(=O)CC(CCc2ccc(O)cc2)O1` (stereo not given), the TGI in the experiment on UACC-62 melanoma, in the experiment with SK-MEL-2 melanoma, with SN12C renal, in the experiment with HL-60(TB) leukemia, with M14 melanoma and in the experiment with HS 578T breast was over 100 µM throughout. Besides, the TGI in the experiment on HCT-15 colon, with HOP-62 NSCLC, in the experiment with OVCAR-3 ovarian, in the experiment on EKVX NSCLC, with NCI-H522 lung and with RXF 393 renal was over 100 µM in each case. For the same compound, the TGI with CAKI-1 renal, with MOLT-4 leukemia, with A549 NSCLC, with CCRF-CEM leukemia, in the experiment on PC-3 prostate and in the experiment with SK-MEL-5 melanoma was over 100 µM in each case. Moreover, the TGI in the experiment with SNB-75 CNS and in the experiment on MDA-MB-435 was over 100 µM each time.
With `COC(=O)[C@]12CCC(C)(C)C[C@H]1[C@H]1C(=O)C=C3[C@@]4(C)C=C(C#N)C(=O)C(C)(C)[C@@H]4CC[C@@]3(C)[C@]1(C)CC2`, the TGI was determined as 0.0945 µM with UACC-62 melanoma; 0.187 µM in the experiment on SK-MEL-2 melanoma; 0.187 µM with SN12C renal; 0.421 µM with HL-60(TB) leukemia; 0.0876 µM in the experiment with M14 melanoma; 2.14 µM with HS 578T breast. The TGI is 0.0392 µM with HCT-15 colon; 0.0547 µM in the experiment with HOP-62 NSCLC; 0.0615 µM with OVCAR-3 ovarian; 0.208 µM in the experiment on EKVX NSCLC; over 100 µM with NCI-H522 lung; over 100 µM with RXF 393 renal. In addition, the TGI is 0.078 µM with CAKI-1 renal; 1.56 µM in the experiment on MOLT-4 leukemia; 1.29 µM in the experiment with A549 NSCLC; over 100 µM in the experiment with CCRF-CEM leukemia; 0.469 µM in the experiment on PC-3 prostate; 0.109 µM with SK-MEL-5 melanoma. The TGI came to 3.62 µM with SNB-75 CNS and 0.0585 µM in the experiment on MDA-MB-435.
For the compound `CCCCCCCCCCCCC/C=C/[C@@H](O)[C@H](COC1OC(CO)C(OC2OC(CO)C(O)C(OC3(C(=O)O)CC(O)C(NC(C)=O)C(C(O)C(O)CO)O3)C2O)C(O)C1O)N=[N+]=[N-]` (stereo not given in full), the TGI was 37.1 µM in the experiment with UACC-62 melanoma; 49.7 µM with SK-MEL-2 melanoma; over 100 µM with SN12C renal; 80.8 µM with HL-60(TB) leukemia; 34.3 µM in the experiment with M14 melanoma; over 100 µM in the experiment on HS 578T breast. Further, the TGI was over 100 µM with HCT-15 colon; 46.2 µM in the experiment on HOP-62 NSCLC; over 100 µM with OVCAR-3 ovarian; over 100 µM with EKVX NSCLC; 70.5 µM in the experiment with NCI-H522 lung; 48.8 µM in the experiment on RXF 393 renal. The TGI is over 100 µM in the experiment with CAKI-1 renal; 43.4 µM in the experiment with MOLT-4 leukemia; over 100 µM in the experiment with A549 NSCLC; 43.4 µM with CCRF-CEM leukemia; 59.4 µM with PC-3 prostate; 41.6 µM with SK-MEL-5 melanoma. Besides, the TGI in the experiment on SNB-75 CNS was 37.1 µM; in the experiment with MDA-MB-435, over 100 µM.
For the compound `Cc1c(C)n(-c2ccccc2)c2nc(S(C)(=O)=O)nc(S(C)(=O)=O)c12`, the TGI with UACC-62 melanoma is 17.6 µM; in the experiment on SK-MEL-2 melanoma, 4.21 µM; in the experiment on SN12C renal it was 33.8 µM; with HL-60(TB) leukemia it was 3.35 µM; in the experiment with M14 melanoma, 3.1 µM; in the experiment on HS 578T breast it was over 85.5 µM. Besides, the TGI in the experiment with HCT-15 colon was 3.31 µM; with HOP-62 NSCLC it was 33.2 µM; in the experiment on OVCAR-3 ovarian it was 3.02 µM; with EKVX NSCLC, 11.7 µM; in the experiment with NCI-H522 lung, 3.59 µM; in the experiment on RXF 393 renal, 2.75 µM. Further, the TGI in the experiment with CAKI-1 renal worked out at 1.55 µM; with MOLT-4 leukemia it was 2.49 µM; in the experiment on A549 NSCLC, 30.4 µM; in the experiment on CCRF-CEM leukemia, 2.29 µM; in the experiment with PC-3 prostate it was 10.2 µM; in the experiment with SK-MEL-5 melanoma, 27.1 µM. Also, the TGI is 34.5 µM with SNB-75 CNS and 3.56 µM with MDA-MB-435.
For the compound `COc1ccc(-c2csc(Cc3nc4ccccc4c(=O)n3-c3ccc(Cl)cc3)n2)cc1`, the TGI with UACC-62 melanoma was 68.3 µM; in the experiment on SK-MEL-2 melanoma, 35.3 µM; in the experiment with HL-60(TB) leukemia it was over 100 µM; with M14 melanoma it was 65.1 µM; in the experiment with HS 578T breast it was over 100 µM; in the experiment with HCT-15 colon, 97.6 µM. The TGI is over 100 µM in the experiment on HOP-62 NSCLC; over 100 µM in the experiment with OVCAR-3 ovarian; 62.7 µM in the experiment with EKVX NSCLC; over 100 µM in the experiment with NCI-H522 lung; over 100 µM with RXF 393 renal; over 100 µM in the experiment on CAKI-1 renal. In addition, the TGI is 67.4 µM in the experiment on MOLT-4 leukemia; over 100 µM with A549 NSCLC; over 100 µM in the experiment on CCRF-CEM leukemia; over 100 µM in the experiment on PC-3 prostate; 41.1 µM in the experiment on SK-MEL-5 melanoma; over 100 µM in the experiment on SNB-75 CNS. The same compound showed a TGI in the experiment on MDA-MB-435 of over 100 µM.
On to `CN(C)c1ccc(/C=N\NC(=O)Nc2cccc3ccccc23)cc1`, for which the TGI is 35.7 µM with SK-MEL-2 melanoma; 31.4 µM with SN12C renal; 7.03 µM with HL-60(TB) leukemia; over 100 µM in the experiment on M14 melanoma; 23.1 µM in the experiment with HS 578T breast; 7.23 µM in the experiment with HCT-15 colon. Also, the TGI is 33.1 µM with HOP-62 NSCLC; over 100 µM with EKVX NSCLC; 14 µM in the experiment on NCI-H522 lung; over 100 µM in the experiment with RXF 393 renal; 27.9 µM with CAKI-1 renal; over 100 µM in the experiment on MOLT-4 leukemia. For the same compound, the TGI in the experiment on A549 NSCLC is over 100 µM; in the experiment on CCRF-CEM leukemia it was over 100 µM; with PC-3 prostate, 35.5 µM; in the experiment with SK-MEL-5 melanoma, 18.6 µM; in the experiment on SNB-75 CNS, 32.3 µM; in the experiment with MDA-MB-435, 48.3 µM.
For `CCOC(=O)C1(C/C=C/CBr)CCc2ccccc2C1=O` (stereo not given), the TGI is 28.7 µM with UACC-62 melanoma; 37.7 µM in the experiment on SK-MEL-2 melanoma; 34.8 µM in the experiment on SN12C renal; over 100 µM in the experiment with HL-60(TB) leukemia; 28.2 µM in the experiment on M14 melanoma; 94.4 µM in the experiment on HS 578T breast. Moreover, the TGI with HCT-15 colon was 47.5 µM; in the experiment with HOP-62 NSCLC, 30.3 µM; in the experiment on EKVX NSCLC it was 55 µM; in the experiment on NCI-H522 lung, 31.9 µM; in the experiment with RXF 393 renal, 18.4 µM; in the experiment with CAKI-1 renal it was 28.8 µM. Besides, the TGI is over 100 µM in the experiment with MOLT-4 leukemia; 30.6 µM in the experiment on A549 NSCLC; over 100 µM in the experiment on CCRF-CEM leukemia; 43 µM in the experiment with PC-3 prostate; 25.2 µM in the experiment on SK-MEL-5 melanoma; 22.6 µM in the experiment on SNB-75 CNS. In the experiment on MDA-MB-435, this compound gave a TGI of 31 µM.
On to `Nc1nc(Cl)c(N)c(NCC2(CO)CCCC2)n1`, for which the TGI with UACC-62 melanoma was 7.44 µM; in the experiment on SK-MEL-2 melanoma, over 100 µM; with SN12C renal, over 100 µM; in the experiment with HL-60(TB) leukemia, over 100 µM; in the experiment on HS 578T breast it was over 100 µM; with HCT-15 colon, over 100 µM. Also, the TGI in the experiment on HOP-62 NSCLC, in the experiment with OVCAR-3 ovarian, in the experiment on EKVX NSCLC, with NCI-H522 lung, in the experiment on RXF 393 renal and in the experiment on CAKI-1 renal was over 100 µM throughout. In addition, the TGI with MOLT-4 leukemia, in the experiment on A549 NSCLC, in the experiment with CCRF-CEM leukemia, in the experiment on PC-3 prostate, with SK-MEL-5 melanoma and with SNB-75 CNS was over 100 µM throughout. Moreover, in the experiment with MDA-MB-435, the TGI was over 100 µM.
Consider `COc1ccc(NC(=O)N(C)CC2(O)CCC(C(C)(C)C)CC2)cc1` (stereo not given), for which the TGI with UACC-62 melanoma is 97.3 µM; in the experiment with SK-MEL-2 melanoma, over 100 µM; in the experiment with SN12C renal it was over 100 µM; in the experiment with HL-60(TB) leukemia it was over 100 µM; in the experiment with M14 melanoma, over 100 µM; in the experiment with HS 578T breast, over 100 µM. For the same compound, the TGI in the experiment with HCT-15 colon was over 100 µM; in the experiment on HOP-62 NSCLC, over 100 µM; in the experiment on OVCAR-3 ovarian, 81.4 µM; with EKVX NSCLC, over 100 µM; in the experiment with NCI-H522 lung, over 100 µM; in the experiment on RXF 393 renal it was 92.9 µM. The TGI with CAKI-1 renal was 10.3 µM; in the experiment with MOLT-4 leukemia it was over 100 µM; with A549 NSCLC, over 100 µM; in the experiment on CCRF-CEM leukemia it was over 100 µM; with PC-3 prostate it was over 100 µM; in the experiment on SNB-75 CNS, over 100 µM. Also, the TGI in the experiment with MDA-MB-435 was over 100 µM.
On to `Cc1nc2ccc(NC(=S)Nc3ccccc3)cc2c(=O)n1-c1ccccc1`, for which the TGI in the experiment on UACC-62 melanoma, with SK-MEL-2 melanoma, in the experiment on SN12C renal, with HL-60(TB) leukemia, with HS 578T breast and with HCT-15 colon was over 100 µM each time. Moreover, the TGI with HOP-62 NSCLC, with OVCAR-3 ovarian, in the experiment on EKVX NSCLC, in the experiment with NCI-H522 lung, in the experiment on RXF 393 renal and in the experiment on CAKI-1 renal was over 100 µM throughout. For the same compound, the TGI in the experiment on MOLT-4 leukemia, with PC-3 prostate, in the experiment with SK-MEL-5 melanoma, in the experiment on SNB-75 CNS and with MDA-MB-435 was over 100 µM throughout.
As for `COC(=O)CC1C=CC(C)(OC)OO1` (stereo not given), the TGI in the experiment with UACC-62 melanoma, in the experiment with SK-MEL-2 melanoma, with SN12C renal, in the experiment on HL-60(TB) leukemia, in the experiment with M14 melanoma and in the experiment with HS 578T breast was over 100 µM throughout. Moreover, the TGI with HCT-15 colon was over 100 µM; in the experiment on HOP-62 NSCLC, over 100 µM; in the experiment on OVCAR-3 ovarian, over 100 µM; in the experiment with EKVX NSCLC it was over 100 µM; with NCI-H522 lung, 55.5 µM; in the experiment on RXF 393 renal, over 100 µM. Moreover, the TGI is over 100 µM in the experiment on CAKI-1 renal; over 100 µM in the experiment on A549 NSCLC; 97.9 µM with CCRF-CEM leukemia; over 100 µM in the experiment with PC-3 prostate; over 100 µM in the experiment with SK-MEL-5 melanoma; over 100 µM in the experiment with SNB-75 CNS. Moreover, in the experiment on MDA-MB-435, the TGI was over 100 µM.
